Source: US20100210835A1, “Mimetic Drug Delivery Systems for Release with Specific Molecular Triggers” (BOARD OF REGENTS, THE UNIVERSITY OF TEXAS SYSTEM, priority 2009, published 2010)

What was measured:
Format in all cases: physicochemical
[1] = Release of geraniol from MIP polymers in lactic acid solutions; conditions: 200 mg/dl lactic acid, 24 hours; FIG. 8
Experimental: Loading of films with and Active Agent. The active agent geraniol was used for release studies. Once dry, 7 mm discs were carefully cut out using a standard stainless steel cork borer. The discs were lifted out and placed on a clean dish. For the loading, 100 mg of geraniol was weighed out and dissolved in 100 ml of 50% ethanol:distilled water, resulting in a final concentration of 1.0 mg/ml.
The mixture was vigorously mixed and sonicated for 5 minutes. In the meantime discs were arranged in a segmented plastic container and the geraniol solution gently pipetted onto the discs until they were fully covered. The container was tightly covered and left at room temperature overnight. The following day the geraniol solution was gently removed by pipette until the discs were visible. The discs were washed three times with water and placed on a clean foil and left to dry overnight.
Preparation of lactic acid solutions. […]
Incubation Study—Geraniol. […] The stop clock started and samples were taken (100 ul) into HPLC autosampler vials and the concentration of geraniol present was determined by injecting onto a C18 HPLC column and monitoring at a wavelength of 195 nm.
Assay for Geraniol. Geraniol concentration was quantified using an HPLC Diode array detector (DAD) at 195 nm. After blanking with water, samples were injected and the peak area of the geraniol peak recorded. […]

[2] = Loading of films with geraniol; conditions: lactic acid-triggered films, 7 mm discs
Experimental: Loading of films with and Active Agent. The active agent geraniol was used for release studies. Once dry, 7 mm discs were carefully cut out using a standard stainless steel cork borer. The discs were lifted out and placed on a clean dish. For the loading, 100 mg of geraniol was weighed out and dissolved in 100 ml of 50% ethanol:distilled water, resulting in a final concentration of 1.0 mg/ml. The mixture was vigorously mixed and sonicated for 5 minutes. In the meantime discs were arranged in a segmented plastic container and the geraniol solution gently pipetted onto the discs until they were fully covered. The container was tightly covered and left at room temperature overnight. The following day the geraniol solution was gently removed by pipette until the discs were visible. The discs were washed three times with water and placed on a clean foil and left to dry overnight.

[3] = Release of Nile Blue from MIP polymers in glucose solutions
Experimental: Loading of Films with Nile Blue For Release Studies. For dye loading, 50 mg of Nile Blue was weighed out and dissolved in 100 ml of distilled water, resulting in a final concentration of 0.5 mg/ml. The mixture was vigorously mixed and sonicated for 5 minutes. In the meantime discs were arranged in a segmented plastic container and the Nile Blue solution gently pipetted onto the discs until they were fully covered. The container was covered and left at room temperature overnight.
The following day the Nile Blue was gently removed by pipettes until the discs were visible. The discs were carefully removed and washed three times with water and then placed in a clean container and covered in water. The container was then placed on a hot plate set to 55° C. and left for three hours. The water was removed and the process repeated. At the end of six hours the discs were removed and placed on a clean foil and dried overnight at room temperature. The following day the discs were ready for study.
Preparation of glucose solutions. Glucose (200 mg) was weighed out and dissolved in 100 ml of water, resulting in a final concentration of 200 mg/dl.
Incubation—Nile Blue. The above solutions of glucose or lactic acid were used as triggers for Nile Blue release. 4 ml of each solution was placed into three petri dishes kept at room temperature. Stained discs were placed into each dish and the dish covered. Samples were taken (400 ul) into micro-cuvettes at specific time points and the concentration of Nile Blue present was determined by measuring the absorbance of the Nile Blue solutions at 625 nm.

Compound: CC(C)=CCC/C(C)=C/CO [Geraniol]
- release of geraniol from MIP films [1]: ~100%
- loading of geraniol in MIP films [2]: approximately 145 μg per disc

Compound: CC[N+](CC)=c1ccc2nc3c(cc(N)c4ccccc43)oc-2c1 [Nile Blue]
- release of Nile Blue from MIP films ([3]; films moved at 365 minutes from water to 200 mg/dl glucose, FIG. 5): began almost immediately
- release of Nile Blue from MIP films ([3]; films moved at 450 minutes from glucose solution to fresh water, FIG. 6): stopped almost immediately
- release of Nile Blue from MIP films ([3]; in water, about 5 hours): not showed any significant release
- release of Nile Blue from MIP films ([3]; increasing glucose concentration, FIG. 4): released in increasing amounts
